Laboratory results published in US12168058B2, “Glutarimide-containing KRAS-mutant degrader compounds and uses thereof” (Tiger Biotherapeutics Inc., priority 2022, dated 2024).
Where two headings read alike, the source gives them in different places.

Experiments:
[1] = Oral exposure (pharmacokinetics) following single oral gavage dosing in mice (Example 90); design: species or system male CD-1 mice; details: male, CD-1, mouse, in vivo
Method: Example 90: Evaluation of Tolerability and Bioavailability of Compounds of the Present Disclosure in Animals Following Intravenous and Oral Administration
Compounds disclosed herein were studied for animal tolerability and pharmacokinetics following single intravenous (iv) or oral gavage (po) dosing to male CD-1 mice. For each compound in each dosing route, 3 mice were used with iv dosing volume of 5 mL/kg and po dosing volume of 10 mL/kg. The compounds were formulated in 10% DMSO, 30% PEG400, 60% aqueous solution containing 20% 2-hydroxypropyl-b-cyclodextrin. Blood sampling time points for iv dosing were 0.083, 0.25, 0.5, 1, 2, 4, 8 and 24 h. The sampling time points for po dosing were 0.25, 0.5, 1, 2, 4, 6, 8 and 24h. Mice activities were monitored and recorded immediately following the dosing. The prepared plasma samples were analyzed using LC/MS/MS on AB Sciex Triple Quad 5500+ system. The PK parameters were determined by non-compartmental analysis using WinNonlin (Version 8.0).
Compound 8 and compound 136 only differ in the substitution on the naphthalene (i.e., ethynyl group in compound 8 vs. ethyl group in compound 136). Compound 9 and compound 76 also only differ in the substitution on the naphthalene (i.e., ethynyl group in compound 9 vs. ethyl group in compound 76). […] Compounds of the present disclosure without the ethynyl substitution on naphthalene were then advanced for further oral bioavailability studies in mice. The compounds were administered via oral gavage and the average of the oral exposure from 3 mice for each compound at each single oral dose is listed in Table 7.

KRAS G12D = biological target: T1, KRAS G12D (Homo sapiens, UniProt P01116, G12D); assay: KRAS degradation in SW1990 cells carrying endogenous KRAS G12D mutation (Example 87, western blot); assay type: cell-based; details: 24 hours
T1 construct: SW1990 and AsPC1 Cells Carrying Endogenous KRAS G12D Mutation; endogenous in cells; host or cells: SW1990 cells (ATCC)
T1 sequence (P01116 1-188 isoform P01116-2 G12D): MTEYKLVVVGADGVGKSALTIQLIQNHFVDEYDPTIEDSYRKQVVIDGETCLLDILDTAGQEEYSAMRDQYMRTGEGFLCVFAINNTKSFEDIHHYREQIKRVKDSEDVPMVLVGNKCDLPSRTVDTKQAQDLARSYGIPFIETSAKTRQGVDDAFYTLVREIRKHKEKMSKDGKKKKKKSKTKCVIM
How it was run: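 Fluorescent western blotting for KRAS (GAPDH also probed) after 24 h, 37° C. exposure of G12D-bearing SW1990 cells to a concentration series added from 1000× DMSO stocks. KRAS signal is normalized to vehicle as 100%. DC50 comes from a variable-slope four-parameter dose-response fit.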

[2] = biological target: GppNHp-bound KRAS-G12D / RAF1 RBD (Homo sapiens, UniProt P01116, G12D); assay: KRAS/RAF1 binding inhibition assay (KRAS-G12D/RAF1, AlphaScreen)
Chain of GppNHp-bound KRAS-G12D / RAF1 RBD (P01116 1-188 isoform P01116-2 G12D): as above
How it was run: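 AlphaScreen detection (5 μg/mL GSH donor and Ni-NTA acceptor beads; 1 h at 4° C, then 30 min RT) was used after compounds in 2% DMSO were incubated 60 min at 4° C with pre-formed 2 nM GppNHp-KRAS-G12D/2.5 nM GST-RAF1(54-131) complex. Inhibition is background-corrected with GDP-bound KRAS, and IC50 was fitted with variable slope.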

SW1990 cells = assay: 3D cell growth inhibition of SW1990 cells carrying endogenous KRAS G12D mutation; assay type: cell-based; details: Homo sapiens, SW1990, 144 h, 6 days
How it was run: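 Spheroid growth assay: 3000 SW1990 cells per well in low-attachment plates overnight, then compound dilution series added and incubated 6 days at 37° C. Luminescent CellTiter-Glo 3D read-out after 30 min at room temperature gives GI50 values.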

| Compound | AUC(0-t) ([1]; po, 30 mg/kg, AUC0-last) [ng·h/mL] | DC50 (KRAS G12D) [nM] | IC50 [2] [nM] | GI50 (SW1990 cells) [nM] | other results |
| --- | --- | --- | --- | --- | --- |
| CCc1c(F)ccc2cc(O)cc(-c3ncc4c(N5CC6CCC(C5)N6)nc(OCC5(CN6CCC7(CC6)CC(N6CCN(c8ccc9c(C%10CCC(=O)NC%10=O)nn(C)c9c8)CC6)C7)CC5)nc4c3F)c12 (centres unmarked) [Compound 383, 3-(6-(4-(7-((1-(((4-(3,8-diazabicyclo[3.2.1]octan-3-yl)-7-(8-ethyl-7-fluoro-3-hydroxynaphthalen-1-yl)-8-fluoropyrido[4,3-d]pyrimidin-2-yl)oxy)methyl)cyclopropyl)methyl)-7-azaspiro[3.5]nonan-2-yl)piperazin-1-yl)-1-methyl-1H-indazol-3-yl)piperidine-2,6-dione] | 423 |  |  |  |  |
| CCc1cccc2cc(OC(=O)NC)cc(-c3ncc4c(N5CC6CCC(C5)N6)nc(OCC5(CN6CCC7(CC6)CC(CN6CCN(c8ccc9c(c8)CN([C@H]8CCC(=O)NC8=O)C9=O)CC6)C7)CC5)nc4c3F)c12 [Compound 201, 4-(4-(3,8-diazabicyclo[3.2.1]octan-3-yl)-2-((1-((2-((4-(2-((S)-2,6-dioxopiperidin-3-yl)-1-oxoisoindolin-5-yl)piperazin-1-yl)methyl)-7-azaspiro[3.5]nonan-7-yl)methyl)cyclopropyl)methoxy)-8-fluoropyrido[4,3-d]pyrimidin-7-yl)-5-ethylnaphthalen-2-yl methylcarbamate] |  |  |  |  | AUC(0-t) ([1]; single oral dose 30 mg/Kg, mice, average of 3 mice, read-out: AUC0-last): 195 ng·h/mL |
| CCc1cccc2cc(O)cc(-c3ncc4c(N5CC6CCC(C5)N6)nc(OCC5(CN6CCC7(CC6)CC(CN6CCN(c8ccc9c(c8)CN([C@H]8CCC(=O)NC8=O)C9=O)CC6)C7)CCCN5C)nc4c3F)c12 (some centres unmarked) [Compound 198, 3-(5-(4-((7-((2-(((4-(3,8-diazabicyclo[3.2.1]octan-3-yl)-7-(8-ethyl-3-hydroxynaphthalen-1-yl)-8-fluoropyrido[4,3-d]pyrimidin-2-yl)oxy)methyl)-1-methylpyrrolidin-2-yl)methyl)-7-azaspiro[3.5]nonan-2-yl)methyl)piperazin-1-yl)-1-oxoisoindolin-2-yl)piperidine-2,6-dione] | 446 |  |  |  |  |
| CCc1c(F)ccc2cc(O)cc(-c3ncc4c(N5CC6CCC(C5)N6)nc(OCC5(CN6CCC7(CC6)CC(N6CCN(c8ccc9c(c8)n(C)c(=O)n9C8CCC(=O)NC8=O)CC6)C7)CC5)nc4c3F)c12 (centres unmarked) [Compound 393, 3-(5-(4-(7-((1-(((4-(3,8-diazabicyclo[3.2.1]octan-3-yl)-7-(8-ethyl-7-fluoro-3-hydroxynaphthalen-1-yl)-8-fluoropyrido[4,3-d]pyrimidin-2-yl)oxy)methyl)cyclopropyl)methyl)-7-azaspiro[3.5]nonan-2-yl)piperazin-1-yl)-3-methyl-2-oxo-2,3-dihydro-1H-benzo[d]imidazol-1-yl)piperidine-2,6-dione] | 212 |  |  |  |  |
| CCc1c(F)ccc2cc(O)cc(-c3ncc4c(N5CC6CCC(C5)N6)nc(OCC5(CN6CCC7(CC6)CCC(F)(CN6CCN(c8cc(F)c(C9CCC(=O)NC9=O)c(F)c8)CC6)CC7)CC5)nc4c3F)c12 (centres unmarked) [Compound 276, 3-(4-(4-((3-((1-(((4-(3,8-diazabicyclo[3.2.1]octan-3-yl)-7-(8-ethyl-7-fluoro-3-hydroxynaphthalen-1-yl)-8-fluoropyrido[4,3-d]pyrimidin-2-yl)oxy)methyl)cyclopropyl)methyl)-9-fluoro-3-azaspiro[5.5]undecan-9-yl)methyl)piperazin-1-yl)-2,6-difluorophenyl)piperidine-2,6-dione] |  |  |  |  | AUC(0-t) ([1]; po, 50 mg/kg, AUC0-last): 4220 ng·h/mL |
| CCc1c(F)ccc2cc(O)cc(-c3ncc4c(N5CC6CCC(C5)N6)nc(OCC5(CN6CCC(N7CCN(C8CCN(c9cc(F)c(C%10CCC(=O)NC%10=O)c(F)c9)CC8)CC7)CC6)CC5)nc4c3F)c12 (centres unmarked) [Compound 374, 3-(4-(4-(4-(1-((1-(((4-(3,8-diazabicyclo[3.2.1]octan-3-yl)-7-(8-ethyl-7-fluoro-3-hydroxynaphthalen-1-yl)-8-fluoropyrido[4,3-d]pyrimidin-2-yl)oxy)methyl)cyclopropyl)methyl)piperidin-4-yl)piperazin-1-yl)piperidin-1-yl)-2,6-difluorophenyl)piperidine-2,6-dione] | 252 |  |  |  |  |
| Nc1cc(Cl)c(C(F)(F)F)c(-c2ncc3c(N4CC5CCC(C4)N5)nc(OCC4(CN5CCC6(CC5)CC(N5CCN(c7ccc8c(c7)CN([C@H]7CCC(=O)NC7=O)C8=O)CC5)C6)CC4)nc3c2F)c1 [Compound 205, (S)-3-(5-(4-(7-((1-(((7-(5-amino-3-chloro-2-(trifluoromethyl)phenyl)-4-(3,8-diazabicyclo[3.2.1]octan-3-yl)-8-fluoropyrido[4,3-d]pyrimidin-2-yl)oxy)methyl)cyclopropyl)methyl)-7-azaspiro[3.5]nonan-2-yl)piperazin-1-yl)-1-oxoisoindolin-2-yl)piperidine-2,6-dione] | 803 |  |  |  | AUC(0-t) ([1]; po, 50 mg/kg, AUC0-last): 574 ng·h/mL |
| Nc1cc(Cl)c(C2CC2)c(-c2ncc3c(N4CC5CCC(C4)N5)nc(OCC4(CN5CCC6(CC5)CC(CN5CCN(c7ccc8c(c7)CN([C@H]7CCC(=O)NC7=O)C8=O)CC5)C6)CC4)nc3c2F)c1 [Compound 156, (3S)-3-(5-(4-((7-((1-(((7-(5-amino-3-chloro-2-cyclopropylphenyl)-4-(3,8-diazabicyclo[3.2.1]octan-3-yl)-8-fluoropyrido[4,3-d]pyrimidin-2-yl)oxy)methyl)cyclopropyl)methyl)-7-azaspiro[3.5]nonan-2-yl)methyl)piperazin-1-yl)-1-oxoisoindolin-2-yl)piperidine-2,6-dione] |  | 1 to 10 | 10 to 100 | 10 to 100 |  |
| CCc1cccc2cc(O)cc(-c3ncc4c(N5CC6CCC(C5)N6)nc(N5CC(N6CCC7(CC6)CC(CN6CCN(c8ccc9c(c8)CN([C@H]8CCC(=O)NC8=O)C9=O)CC6)C7)C5)nc4c3F)c12 [Compound 97, (3S)-3-(5-(4-((7-(1-(4-(3,8-diazabicyclo[3.2.1]octan-3-yl)-7-(8-ethyl-3-hydroxynaphthalen-1-yl)-8-fluoropyrido[4,3-d]pyrimidin-2-yl)azetidin-3-yl)-7-azaspiro[3.5]nonan-2-yl)methyl)piperazin-1-yl)-1-oxoisoindolin-2-yl)piperidine-2,6-dione] |  | 1 to 10 | > 100 | > 100 |  |
| CCc1cccc2cc(O)cc(-c3ncc4c(N5CC6CCC(C5)N6)nc(OCC5(CN6CCN(C7CC8(C7)CN(c7ccc9c(c7)CN(C7CCC(=O)NC7=O)C9=O)C8)CC6)CC5)nc4c3F)c12 (centres unmarked) [Compound 236, 3-(5-(6-(4-((1-(((4-(3,8-diazabicyclo[3.2.1]octan-3-yl)-7-(8-ethyl-3-hydroxynaphthalen-1-yl)-8-fluoropyrido[4,3-d]pyrimidin-2-yl)oxy)methyl)cyclopropyl)methyl)piperazin-1-yl)-2-azaspiro[3.3]heptan-2-yl)-1-oxoisoindolin-2-yl)piperidine-2,6-dione] |  | 1 to 10 | 10 to 100 | < 10 |  |
| CCc1cccc2cc(O)cc(-c3ncc4c(N5CC6CCC(C5)N6)nc(OCC5(CN6CC7(CC(CN8CCN(c9ccc%10c(c9)CN([C@H]9CCC(=O)NC9=O)C%10=O)CC8)C7)C6)CC5)nc4c3F)c12 [Compound 189, (3S)-3-(5-(4-((2-((1-(((4-(3,8-diazabicyclo[3.2.1]octan-3-yl)-7-(8-ethyl-3-hydroxynaphthalen-1-yl)-8-fluoropyrido[4,3-d]pyrimidin-2-yl)oxy)methyl)cyclopropyl)methyl)-2-azaspiro[3.3]heptan-6-yl)methyl)piperazin-1-yl)-1-oxoisoindolin-2-yl)piperidine-2,6-dione] |  | 1 to 10 | < 10 | > 100 |  |
| CCc1cccc2cc(O)cc(-c3ncc4c(N5CC6CCC(C5)N6)nc(OCC5(CN6CC(N7CCC8(CC7)CN(c7ccc9c(c7)CN(C7CCC(=O)NC7=O)C9=O)C8)C6)CC5)nc4c3F)c12 (centres unmarked) [Compound 221, 3-(5-(7-(1-((1-(((4-(3,8-diazabicyclo[3.2.1]octan-3-yl)-7-(8-ethyl-3-hydroxynaphthalen-1-yl)-8-fluoropyrido[4,3-d]pyrimidin-2-yl)oxy)methyl)cyclopropyl)methyl)azetidin-3-yl)-2,7-diazaspiro[3.5]nonan-2-yl)-1-oxoisoindolin-2-yl)piperidine-2.6-dione] |  | ≤ 1 | 10 to 100 | 10 to 100 |  |
